Results on 9 compounds are retold here after PubChem BioAssay (NCI).

Each structure is given as a SMILES string.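 Compound exposure: 48 hours, 5 concentrations, 96-well plates. GI50 = concentration required for 50% inhibition of growth. TGI: concentration producing complete growth inhibition.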

Some test systems named below: BT-549 breast; COLO 205 colon; HCC-2998 colon; HCT-15 colon; HOP-92 NSCLC; MALME-3M melanoma; MOLT-4 leukemia; NCI-H460 lung.
Common to all, as to assay: NCI anticancer screen, dose series, 48 h

Turning to `Cc1oc2c(c1C(=O)N1CC[C@@H](N)C1)C(=O)c1c(c(O)c3ccccc3c1O)C2=O`, the GI50 was 8.83 µM in the assay on BT-549 breast; 0.643 µM in the assay on COLO 205 colon; 3.11 µM with HCC-2998 colon; 1.49 µM with HCT-15 colon; 4.64 µM with HOP-92 NSCLC; 1.78 µM in the assay with MALME-3M melanoma. Besides, the GI50 with MOLT-4 leukemia was 0.304 µM; in the assay with NCI-H460 lung it was 0.308 µM. Besides, the TGI was 22.5 µM in the assay with BT-549 breast; 1.97 µM in the assay with COLO 205 colon; 11.7 µM in the assay with HCC-2998 colon; 11.9 µM in the assay with HCT-15 colon; 17.4 µM in the assay on HOP-92 NSCLC; 7.62 µM in the assay with MALME-3M melanoma. The TGI with MOLT-4 leukemia turned out to be 1.96 µM; in the assay on NCI-H460 lung, 2.21 µM.

As for `O=C(Nc1cnc(C(F)(F)F)cn1)c1cc(Cl)ccc1O`, the GI50 in the assay with BT-549 breast was 0.255 µM; with COLO 205 colon, 1.54 µM; with HCC-2998 colon, 0.294 µM; in the assay with HCT-15 colon, 0.307 µM; with HOP-92 NSCLC, 0.188 µM; in the assay with MALME-3M melanoma it was 0.197 µM. For the same compound, the GI50 in the assay on MOLT-4 leukemia was 0.352 µM; with NCI-H460 lung, 0.332 µM. The TGI turned out to be 0.835 µM in the assay with BT-549 breast; 3.14 µM with COLO 205 colon; 4.6 µM in the assay with HCC-2998 colon; 3.24 µM in the assay on HCT-15 colon; 0.621 µM in the assay with HOP-92 NSCLC; 0.565 µM with MALME-3M melanoma. The TGI in the assay on MOLT-4 leukemia was determined as 1.78 µM; in the assay with NCI-H460 lung it was 15.2 µM.

On to `COc1cc(C2CC(=O)Nc3c2cc(Br)c2ccccc32)cc(Br)c1OC` (centres undefined), for which the GI50 was 3.47 µM in the assay on BT-549 breast; 2.06 µM in the assay with COLO 205 colon; 4.53 µM in the assay on HCC-2998 colon; 0.907 µM with HCT-15 colon; 1 µM in the assay with HOP-92 NSCLC; 1.81 µM in the assay with MALME-3M melanoma. Further, the GI50 in the assay with MOLT-4 leukemia is 2.78 µM; in the assay on NCI-H460 lung it was 1.66 µM. Further, the TGI in the assay with BT-549 breast was > 71 µM; in the assay on COLO 205 colon it was > 100 µM; in the assay on HCC-2998 colon it was > 100 µM; in the assay with HCT-15 colon, > 100 µM; with HOP-92 NSCLC it was 7.07 µM; in the assay with MALME-3M melanoma, 67.2 µM. Also, the TGI in the assay on MOLT-4 leukemia was > 47.6 µM; with NCI-H460 lung, 5 µM.

Regarding `Oc1c(Cl)cc(Cl)c2cccnc12`, the GI50 was 4.12 µM with BT-549 breast; 3.43 µM with COLO 205 colon; 10.1 µM in the assay on HCC-2998 colon; 4.73 µM in the assay on HCT-15 colon; 2.8 µM in the assay on HOP-92 NSCLC; 2.78 µM in the assay on MALME-3M melanoma. The values for the GI50 with MOLT-4 leukemia and with NCI-H460 lung were 3.41 µM and 1.87 µM, respectively. The TGI was 52.7 µM in the assay on BT-549 breast; 13.4 µM in the assay with COLO 205 colon; 26 µM in the assay on HCC-2998 colon; 25.9 µM with HCT-15 colon; 26.3 µM in the assay on HOP-92 NSCLC; 13.1 µM with MALME-3M melanoma. Besides, the figures for the TGI in the assay with MOLT-4 leukemia and in the assay with NCI-H460 lung were 17.8 µM and 6.9 µM, respectively.

Take `Cc1cc(NC(=O)c2cnc(N3CCN(CCOCCOCCOCCOCCC(=O)N[C@H](C(=O)N4C[C@H](O)C[C@H]4C(=O)N[C@@H](C)c4ccc(-c5scnc5C)cc4)C(C)(C)C)CC3)cn2)c2ncccc2c1`: the GI50 is 1.83 µM in the assay on BT-549 breast; 5.11 µM in the assay with COLO 205 colon; 1.75 µM in the assay with HCC-2998 colon; 6.39 µM in the assay with HCT-15 colon; 2.3 µM in the assay on HOP-92 NSCLC; 1.76 µM with MALME-3M melanoma. In addition, the GI50 with MOLT-4 leukemia was 3.12 µM; in the assay on NCI-H460 lung, 3.37 µM. Further, the TGI with BT-549 breast was 3.69 µM; in the assay with COLO 205 colon, > 100 µM; in the assay on HCC-2998 colon, 3.25 µM; in the assay with HCT-15 colon, > 100 µM; in the assay with HOP-92 NSCLC, 9.37 µM; in the assay on MALME-3M melanoma it was 3.68 µM. Moreover, the values for the TGI in the assay with MOLT-4 leukemia and with NCI-H460 lung were 9.67 µM and 11 µM, respectively.

In the case of `CN(c1ccc(C#N)c(Cl)c1)C1CCC(NC(=O)c2ccc(N3CCN(C4CN(c5ccc6c(c5)C(=O)N(C5CCC(=O)NC5=O)C6=O)C4)CC3)cc2)CC1` (centres undefined), the GI50 with BT-549 breast was 98.6 µM; in the assay on COLO 205 colon it was > 100 µM; in the assay on HCC-2998 colon it was > 100 µM; in the assay with HCT-15 colon, > 100 µM; in the assay with HOP-92 NSCLC, 10.2 µM; with MALME-3M melanoma, 48.8 µM. Further, the GI50 with MOLT-4 leukemia and in the assay on NCI-H460 lung was > 100 µM throughout. Besides, the TGI is > 100 µM with BT-549 breast; > 100 µM in the assay with COLO 205 colon; > 100 µM with HCC-2998 colon; > 100 µM with HCT-15 colon; 99.8 µM with HOP-92 NSCLC; > 100 µM in the assay on MALME-3M melanoma. The TGI with MOLT-4 leukemia and in the assay with NCI-H460 lung was > 100 µM throughout.

As for `O=C1/C(=C/c2cccc(Br)c2)COc2ccc(O)c(O)c21`, the GI50 was 2.03 µM in the assay on BT-549 breast; 1.54 µM in the assay on COLO 205 colon; 1.67 µM with HCC-2998 colon; 0.866 µM with HCT-15 colon; 1.89 µM with HOP-92 NSCLC; 1.49 µM in the assay with MALME-3M melanoma. Besides, the GI50 in the assay on MOLT-4 leukemia was 0.927 µM; in the assay on NCI-H460 lung, 2.14 µM. In addition, the TGI in the assay on BT-549 breast came out at 4.35 µM; in the assay on COLO 205 colon, 3 µM; in the assay with HCC-2998 colon, 3.1 µM; with HCT-15 colon, 3.88 µM; in the assay with HOP-92 NSCLC, 7.21 µM; in the assay with MALME-3M melanoma, 3.06 µM. Also, the TGI stood at 10.8 µM in the assay with MOLT-4 leukemia and 5.42 µM with NCI-H460 lung.

Consider `Nc1n[nH]c(N)c1N=Nc1ccc(O)cc1`, for which the GI50 with BT-549 breast is 14 µM; in the assay on COLO 205 colon, 18.9 µM; in the assay on HCC-2998 colon it was 29.4 µM; with HCT-15 colon, 24.2 µM; with HOP-92 NSCLC, 18.2 µM; with MALME-3M melanoma, 24.6 µM. Moreover, the figures for the GI50 in the assay on MOLT-4 leukemia and in the assay with NCI-H460 lung were 13.5 µM and 25.1 µM, respectively. In addition, the TGI in the assay with BT-549 breast was 63.5 µM; in the assay with COLO 205 colon it was 54.2 µM; in the assay on HCC-2998 colon, > 100 µM; in the assay on HCT-15 colon it was 90.6 µM; in the assay with HOP-92 NSCLC, 67.8 µM; in the assay on MALME-3M melanoma, 60.3 µM. Also, the TGI with MOLT-4 leukemia was 91 µM; in the assay with NCI-H460 lung, 97.2 µM.

For the compound `COc1ccc(Oc2ccccc2NC(=O)CNC(=O)c2cccc3ccccc23)cc1`, the GI50 in the assay with BT-549 breast was 1.12 µM; with COLO 205 colon it was 0.64 µM; with HCC-2998 colon it was 1.41 µM; in the assay on HCT-15 colon it was 0.59 µM; in the assay on HOP-92 NSCLC, > 25 µM; in the assay on MALME-3M melanoma it was > 25 µM. In addition, the GI50 is 0.96 µM in the assay with MOLT-4 leukemia and 0.859 µM in the assay on NCI-H460 lung. The TGI in the assay with BT-549 breast was > 25 µM; in the assay with COLO 205 colon it was 2.04 µM; in the assay on HCC-2998 colon, > 25 µM; in the assay on HCT-15 colon, > 25 µM; with HOP-92 NSCLC, > 25 µM; in the assay on MALME-3M melanoma it was > 25 µM. Also, the TGI in the assay on MOLT-4 leukemia and with NCI-H460 lung was > 25 µM throughout.
